In patent publication US20120015887A1, “SYNTHETIC PEPTIDE AND USES THEREOF” (priority 2009, published 2012):
Bridge positions count the residues as written; N and C are the ends. Side chains are listed from the residue outwards. Peptide text beside a SMILES is read from it. I, II: the chains in the order shown.

Tests used:
[1] = in vivo
[2] = Body weight, spleen weight and tolerability in Kunming mice with transplanted H22 tumor; conditions: for Weight of spleen / Average weight (X ± S, g) End / Average weight (X ± S, g) Start: 2 mg/kg, ip × 5; for Weight of spleen: end of test; for Average weight (X ± S, g) End: End of test; for Average weight (X ± S, g) Start: Start of test
[3] = The 3rd day after administration, 2 mg/kg ip
[4] = The 5th day after administration, 2 mg/kg ip
[5] = The 7th day after administration, 2 mg/kg ip
[6] = The 9th day after administration, 2 mg/kg ip
[7] = The 11th day after administration, 2 mg/kg ip

| SMILES | Abnormity or side effect in test chickens [1] | Weight of spleen [2] [g] | Average weight (X ± S, g) End [2] [g] | Average weight (X ± S, g) Start [2] [g] | Body weight/g [2, 3] [g] | Body weight/g [2, 4] [g] | Body weight/g [2, 5] [g] | Body weight/g [2, 6] [g] | Body weight/g [2, 7] [g] | Body weight/g ([2]; The day without administration) [g] | Body weight growth compared with the blank control group ([2]; 2 mg/kg ip, test duration) | Death / acute toxicity in tumor-bearing mice ([2]; 2 mg/kg ip, test duration) | Side effect in tumor-bearing mice ([2]; 2 mg/kg ip, test duration) |
| --- | --- | --- | --- | --- | --- | --- | --- | --- | --- | --- | --- | --- | --- |
| C[C@@H](O)[C@H](N)C(=O)N[C@@H](CCCCN)C(=O)N1CCC[C@H]1C(=O)N[C@@H](CCCNC(=N)N)C(=O)NCCCC[C@H](NC(=O)[C@H](CCCNC(=N)N)NC(=O)[C@@H]1CCCN1C(=O)[C@H](CCCCN)NC(=O)[C@@H](N)[C@@H](C)O)C(=O)NCCCC[C@H](NC(=O)[C@H](CCCCNC(=O)[C@H](CCCNC(=N)N)NC(=O)[C@@H]1CCCN1C(=O)[C@H](CCCCN)NC(=O)[C@@H](N)[C@@H](C)O)NC(=O)[C@H](CCCNC(=N)N)NC(=O)[C@@H]1CCCN1C(=O)[C@H](CCCCN)NC(=O)[C@@H](N)[C@@H](C)O)C(=O)N[C@H](C(=O)N[C@@H](CCCCN)C(=O)N1CCC[C@H]1C(=O)N[C@@H](CCCNC(=N)N)C(=O)O)[C@@H](C)O [(TKPR)4>K2>K-TKPR] (I: H-TKPRK([Arg-Pro-Lys-Thr])KTKPR-OH / II: H-TKPRK([Arg-Pro-Lys-Thr]); amide I:6-II:C) | no abnormity or side effect | – | – | – | – | – | – | – | – | – | – | – | – |
| C[C@@H](O)[C@H](N)C(=O)N[C@@H](CCCCN)C(=O)N1CCC[C@H]1C(=O)N[C@@H](CCCNC(=N)N)C(=O)NCCCC[C@H](NC(=O)[C@H](CCCNC(=N)N)NC(=O)[C@@H]1CCCN1C(=O)[C@H](CCCCN)NC(=O)[C@@H](N)[C@@H](C)O)C(=O)NCCCC[C@H](NC(=O)[C@H](CCCCNC(=O)[C@H](CCCNC(=N)N)NC(=O)[C@@H]1CCCN1C(=O)[C@H](CCCCN)NC(=O)[C@@H](N)[C@@H](C)O)NC(=O)[C@H](CCCNC(=N)N)NC(=O)[C@@H]1CCCN1C(=O)[C@H](CCCCN)NC(=O)[C@@H](N)[C@@H](C)O)C(=O)O [(TKPR)4>K2>K, reference compound] (I: H-TKPRK([Arg-Pro-Lys-Thr])K-OH / II: H-TKPRK([Arg-Pro-Lys-Thr]); amide I:6-II:C) | no abnormity or side effect | – | – | – | – | – | – | – | – | – | – | – | – |
| C[C@@H](O)[C@H](N)C(=O)N[C@@H](CCCCN)C(=O)N1CCC[C@H]1C(=O)N[C@@H](CCCNC(=N)N)C(=O)O [TKPR, Thr-Lys-Pro-Arg, reference compound] (H-TKPR-OH) | – | 0.32 ± 0.09 | 29.6 ± 1.7 | 15.2 ± 0.7 | 18.9 ± 0.7 | 21.5 ± 1.1 | 24.4 ± 1.3 | 27.0 ± 1.5 | 29.6 ± 1.7 | 15.2 ± 0.7 | – | – | – |
| C[C@@H](O)[C@H](N)C(=O)N[C@@H](CCCCN)C(=O)N1CCC[C@H]1C(=O)N[C@@H](CCCNC(=N)N)C(=O)NCCCC[C@H](NC(=O)[C@H](CCCNC(=N)N)NC(=O)[C@@H]1CCCN1C(=O)[C@H](CCCCN)NC(=O)[C@@H](N)[C@@H](C)O)C(=O)NCCCC[C@H](NC(=O)[C@H](CCCCNC(=O)[C@H](CCCNC(=N)N)NC(=O)[C@@H]1CCCN1C(=O)[C@H](CCCCN)NC(=O)[C@@H](N)[C@@H](C)O)NC(=O)[C@H](CCCNC(=N)N)NC(=O)[C@@H]1CCCN1C(=O)[C@H](CCCCN)NC(=O)[C@@H](N)[C@@H](C)O)C(=O)NCC(=O)O [(TKPR)4>K2>K-G] (I: H-TKPRK([Arg-Pro-Lys-Thr])KG-OH / II: H-TKPRK([Arg-Pro-Lys-Thr]); amide I:6-II:C) | no abnormity or side effect | 0.31 ± 0.08 | 30.6 ± 3.2 | 14.8 ± 0.8 | 19.6 ± 0.8 | 23.3 ± 1.0 | 26.2 ± 1.9 | 28.5 ± 2.5 | 30.6 ± 3.2 | 14.8 ± 0.8 | the same as that of the blank control group | no acute toxicity reactions occurred | no obvious side effect |
